Laboratory results taken from US10781182B2, “Compounds, process for obtaining the compounds, pharmaceutical composition, use of the compounds and method for treating psychiatric disorders and/or sleep disorders” (ACHÉ LABORATÓRIOS FARMACÊUTICOS S.A., priority 2016, dated 2020).
Converted amounts (≈) assume the structure as drawn. Where two headings read alike, the source gives them in different places.

Key:
[1] = biological target: P450 cytochrome 1A2 (CYP1A2) (Homo sapiens (Human), UniProt P05177); conditions: cited from earlier work
Chain of P450 cytochrome 1A2 (CYP1A2) (P05177 whole entry): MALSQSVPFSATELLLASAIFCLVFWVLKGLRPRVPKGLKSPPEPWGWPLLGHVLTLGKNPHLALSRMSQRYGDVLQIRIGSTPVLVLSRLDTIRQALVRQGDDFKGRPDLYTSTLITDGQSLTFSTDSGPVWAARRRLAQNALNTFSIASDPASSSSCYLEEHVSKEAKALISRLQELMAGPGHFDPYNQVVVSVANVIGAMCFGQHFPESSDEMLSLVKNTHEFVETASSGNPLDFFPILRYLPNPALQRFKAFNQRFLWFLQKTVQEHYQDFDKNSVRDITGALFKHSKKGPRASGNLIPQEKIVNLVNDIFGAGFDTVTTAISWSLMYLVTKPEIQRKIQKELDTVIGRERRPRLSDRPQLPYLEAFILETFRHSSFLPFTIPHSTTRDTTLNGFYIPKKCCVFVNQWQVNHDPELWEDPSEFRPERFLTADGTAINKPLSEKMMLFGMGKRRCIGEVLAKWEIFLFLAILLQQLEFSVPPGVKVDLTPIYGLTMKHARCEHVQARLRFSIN

[2] = tested on: human hepatocytes; assay: Intrinsic clearance in cryopreserved human hepatocytes; format: in vitro ADME
Description: (§1) Cryopreserved hepatocytes from humans, rats (Sprague-Dawley males) and from mice (CD-1 males) were used for incubation at different times (0, 0.5, 1, 1.5, 2 hours) at 37° C. followed by HPLC-MS/MS detection. The aim was to verify the clearance time of the test substance on hepatocytes. The experiment was performed on a 96-well plate and the cryopreserved hepatocytes were thawed and resuspended in Krebs-Heinslet buffer(pH 7.3). The reaction was started by adding each test compound to each cell suspension and performing the incubation at the times indicated above. The reaction was quenched with addition of acetonitrile in the wells and detection by HPLC-MS/MS (mass spectrometry). MS/MS is performed by combining two mass detectors into a single instrument.

[3] = Pharmacokinetics (PK) in mouse, I.V. and oral; format: in vivo, CD-1 mice
Description: PK tests were performed with CD-1 mice, using 4 animals per molecule tested, 2 animals for pharmacokinetic analysis by intravenous (IV) administration and 2 animals for oral administration. The treatment was carried out in a single dose: I.V. group with dose of 1 mg/kg and Oral group with dose of 10 mg/kg. […] Blood collection was performed after euthanasia at 08 defined time points and at 24 hours post-dose. The pharmacokinetic analysis parameters detected for Group IV were: half-life (t½), drug concentration at time zero (C0), last measurable plasma concentration (AUClast), area under the plasma concentration curve extrapolation percentage (AUC % ext), area under the plasma concentration curve extrapolation to infinity (AUCinf), volume of distribution (Vz), steady state volume of distribution (Vss), clearance (CL) and mean residence time (MRT). The parameters evaluated for the Oral group were: bioavailability (F %), maximum concentration reached (Cmax), time to reach maximum plasma concentration (Tmax), last measurable plasma concentration (AUClast), area under the plasma concentration curve extrapolation percentage (AUC % ext), area under the plasma concentration curve extrapolation to infinity (AUCinf), area under the plasma concentration curve extrapolation to infinity versus dose (AUCinf/Dose), half-Life (t½), and mean residence time (MRT).

[4] = tested on: rat hepatocytes (Sprague-Dawley males); assay: Intrinsic clearance in cryopreserved rat hepatocytes; format: in vitro ADME
Description: as §1

[5] = Water solubility (shake-flask, PBS pH 7.4); format: physicochemical; conditions: aqueous buffer, thermodynamic from solid
Description: In addition, chromatographic purity (%) was defined as the calculation of the main peak area relative to the calculation of the peak area integrate of the standard HPLC calibration chromatogram. A standard calibration chromatogram was then generated for each compound tested along with a UV/VIS spectrum with maximal labeled absorbance. The shake-flash technique was used with constant stirring during incubation to keep a uniform medium for 24 hours in PBS at pH 7.4.

[6] = biological target: MT1 receptor (Homo sapiens (Human), UniProt P48039); assay: MT1 functional assay; conditions: MT1 and MT2 receptors
Chain of MT1 receptor (P48039 whole entry): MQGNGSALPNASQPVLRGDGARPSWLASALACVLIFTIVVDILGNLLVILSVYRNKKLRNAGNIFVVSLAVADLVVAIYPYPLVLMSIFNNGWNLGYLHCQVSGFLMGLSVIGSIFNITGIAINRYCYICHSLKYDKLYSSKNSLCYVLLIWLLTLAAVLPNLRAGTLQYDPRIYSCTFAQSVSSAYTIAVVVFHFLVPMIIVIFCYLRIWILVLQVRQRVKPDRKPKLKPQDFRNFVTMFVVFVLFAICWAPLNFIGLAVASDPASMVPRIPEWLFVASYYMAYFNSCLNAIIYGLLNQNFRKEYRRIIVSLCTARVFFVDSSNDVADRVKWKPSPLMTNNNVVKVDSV

[7] = Permeability in Caco-2 cells; format: in vitro ADME; conditions: human, Caco-2, pH 6.5, 37° C.
Description: Permeability tests were performed using Caco-2 cells, a colorectal epithelial adenocarcinoma cell line. These cells resemble intestinal epithelial cells in some aspects, such as the formation of a polarized monolayer, a well-defined brush border on the apical surface, and intercellular junctions.
The test is performed in both directions [apical to basolateral (A-B) and basolateral to apical (B-A)] through the cell monolayer, allowing an efflux ratio that provides an indicator as to whether a compound undergoes active efflux. Particle detection was performed with HPLC-MS/MS (mass spectrometry) according to the calculation of the peak area of the result. MS/MS was performed by combining two mass detectors in a single instrument.
A-B permeability was performed at pH 6.5/7.4 with incubation time of 0 and 60 minutes at 37° C. and B-A permeability was performed at pH 6.5/7.4 with incubation time of 0 and 40 minutes at 37° C.

[8] = oral, estimated, from literature; cited from earlier work
[9] = Pharmacokinetics (PK) in rat, I.V. and oral; format: in vivo, Wistar-Han rats
Description: […] The study lasted for 2 weeks (including acclimation time and study), in which the route of administration was made by injection into the caudal vein and oral gavage. The treatment was carried out in a single dose: I.V. group with dose of 1 mg/kg and Oral group with dose of 10 mg/kg. […] Clinical observations were made twice a day (morning and afternoon) in the pre-dose at the 08 time points defined in the protocol. Blood collection was performed after euthanasia in the pre-dose animals at 08 defined time points and at 24 hours post-dose. The pharmacokinetic analysis parameters detected for Group IV were: half-life (t½), drug concentration at time zero (C0), last measurable plasma concentration (AUClast), area under the plasma concentration curve extrapolation percentage (AUC % ext), area under the plasma concentration curve extrapolation to infinity (AUCinf), volume of distribution (Vz), steady state volume of distribution (Vss), clearance (CL) and mean residence time (MRT). The parameters evaluated for the Oral group were: bioavailability (F %), maximum concentration reached (Cmax), time to reach maximum plasma concentration (Tmax), last measurable plasma concentration (AUClast), area under the plasma concentration curve extrapolation percentage (AUC % ext), area under the plasma concentration curve extrapolation to infinity (AUCinf), area under the plasma concentration curve extrapolation to infinity versus dose (AUCinf/Dose), half-Life (t½), and mean residence time (MRT).

[10] = CD-1, plasma, intravenous 1 mg/kg
[11] = oral 10 mg/kg vs intravenous 1 mg/kg
[12] = Wistar-Han, plasma, intravenous 1 mg/kg

For `COc1ccc2cccc(CCNC(C)=O)c2c1` [IA2-76, agomelatine, reference compound], the “share metabolized in the liver by CYP1A2” value [1] is listed as “Around 90%”, the “Intrinsic clearance half-life, Human” value [2] is listed as 48 min and the C0 [3, 10] is listed as 811 ng/mL. For the same molecule, the clearance [3, 10] was 116 mL/min/kg, the half-life [3, 10] was 8.94 min and the AUC(0-t) ([3]; CD-1, plasma, oral 10 mg/kg) was 30.3 ng·h/mL. It also gave a bioavailability ([3]; CD-1, plasma, oral 10 mg/kg vs intravenous 1 mg/kg, read-out: F (%) bioavailability) of 2.42%, a Cmax ([3]; CD-1, plasma, oral 10 mg/kg, read-out: Cmax) of 21.9 ng/mL and a Tmax ([3]; CD-1, plasma, oral 10 mg/kg, read-out: Tmax) of 15 min. The Cmax ([3]; oral 10 mg/kg) was 21.9 ng/mL, the Tmax ([3]; oral 10 mg/kg) was 15 min and the “F (%) bioavailability” value [3, 11] was 2.42%. For the same molecule, the “Intrinsic clearance half-life, Rat Sprague-Dawley” value [4] was 50 min, the solubility at 24 h [5] was 196 µM (≈ 47.7 µg/mL) and the “intrinsic activity (agonist, antagonist or inverse agonist)” value [6] was “agonist”. The Papp A→B at 60 min ([7]; apical to basolateral, 60 min, read-out: Permeability A-B (pH 6.5/7.4)) was 83.9 ×10⁻⁶ cm/s, the Papp B→A at 40 min ([7]; basolateral to apical, 40 min, read-out: Permeability B-A (pH 6.5/7.4)) was 48.5 ×10⁻⁶ cm/s and the absolute bioavailability [8] was 1%. For the same molecule, the clearance [9, 12] was 39.1 mL/min/kg, the half-life [9, 12] was 17.7 min and the AUC(0-t) ([9]; Wistar-Han, plasma, oral 10 mg/kg) was 1020 ng·h/mL. For the same molecule, the bioavailability ([9]; Wistar-Han, plasma, oral 10 mg/kg vs intravenous 1 mg/kg, read-out: F (%) bioavailability) was 22.6%, the CL ([9]; intravenous 1 mg/kg) was 39.1 mL/min/kg and the T1/2 ([9]; intravenous 1 mg/kg) was 17.7 min. For the same molecule, the AUClast ([9]; oral 10 mg/kg) was 1025 ng·h/mL and the “F (%) bioavailability” value [9, 11] was 22.6%.
